This is an account of results in ChEMBL document CHEMBL2074050, “Reversal of MRP-mediated multidrug resistance in human lung cancer cells by the antiprogestatin drug RU486” (Biochem Biophys Res Commun, 1999).

Holding throughout (format): functional, cell-based
Series [1] has as its target T1, Multidrug resistance-associated protein 1 (Homo sapiens, UniProt P33527). Description: TP_TRANSPORTER: increase in Calcein intracellular accumulation (Calcein: 0.5 uM, Progesterone: 50 uM) in GLC4/Sb30 cells. Particulars: glc4/sb30, 50 µM.
In series [2] the target is T1, Multidrug resistance-associated protein 1. The series can be described thus: TP_TRANSPORTER: increase in Calcein intracellular accumulation (Calcein: 0.5 uM, Probenecid: 2000 uM) in GLC4/Sb30 cells. Particulars: glc4/sb30, 2000 µM.
Series [3] has the same target. The series can be described thus: TP_TRANSPORTER: increase in Calcein intracellular accumulation (Calcein: 0.5 uM, RU486: 50 uM) in GLC4/Sb30 cells. As to conditions: glc4/sb30, 50 µM.

SMILES strings stand for the structures.

T1 sequence (P33527 whole entry): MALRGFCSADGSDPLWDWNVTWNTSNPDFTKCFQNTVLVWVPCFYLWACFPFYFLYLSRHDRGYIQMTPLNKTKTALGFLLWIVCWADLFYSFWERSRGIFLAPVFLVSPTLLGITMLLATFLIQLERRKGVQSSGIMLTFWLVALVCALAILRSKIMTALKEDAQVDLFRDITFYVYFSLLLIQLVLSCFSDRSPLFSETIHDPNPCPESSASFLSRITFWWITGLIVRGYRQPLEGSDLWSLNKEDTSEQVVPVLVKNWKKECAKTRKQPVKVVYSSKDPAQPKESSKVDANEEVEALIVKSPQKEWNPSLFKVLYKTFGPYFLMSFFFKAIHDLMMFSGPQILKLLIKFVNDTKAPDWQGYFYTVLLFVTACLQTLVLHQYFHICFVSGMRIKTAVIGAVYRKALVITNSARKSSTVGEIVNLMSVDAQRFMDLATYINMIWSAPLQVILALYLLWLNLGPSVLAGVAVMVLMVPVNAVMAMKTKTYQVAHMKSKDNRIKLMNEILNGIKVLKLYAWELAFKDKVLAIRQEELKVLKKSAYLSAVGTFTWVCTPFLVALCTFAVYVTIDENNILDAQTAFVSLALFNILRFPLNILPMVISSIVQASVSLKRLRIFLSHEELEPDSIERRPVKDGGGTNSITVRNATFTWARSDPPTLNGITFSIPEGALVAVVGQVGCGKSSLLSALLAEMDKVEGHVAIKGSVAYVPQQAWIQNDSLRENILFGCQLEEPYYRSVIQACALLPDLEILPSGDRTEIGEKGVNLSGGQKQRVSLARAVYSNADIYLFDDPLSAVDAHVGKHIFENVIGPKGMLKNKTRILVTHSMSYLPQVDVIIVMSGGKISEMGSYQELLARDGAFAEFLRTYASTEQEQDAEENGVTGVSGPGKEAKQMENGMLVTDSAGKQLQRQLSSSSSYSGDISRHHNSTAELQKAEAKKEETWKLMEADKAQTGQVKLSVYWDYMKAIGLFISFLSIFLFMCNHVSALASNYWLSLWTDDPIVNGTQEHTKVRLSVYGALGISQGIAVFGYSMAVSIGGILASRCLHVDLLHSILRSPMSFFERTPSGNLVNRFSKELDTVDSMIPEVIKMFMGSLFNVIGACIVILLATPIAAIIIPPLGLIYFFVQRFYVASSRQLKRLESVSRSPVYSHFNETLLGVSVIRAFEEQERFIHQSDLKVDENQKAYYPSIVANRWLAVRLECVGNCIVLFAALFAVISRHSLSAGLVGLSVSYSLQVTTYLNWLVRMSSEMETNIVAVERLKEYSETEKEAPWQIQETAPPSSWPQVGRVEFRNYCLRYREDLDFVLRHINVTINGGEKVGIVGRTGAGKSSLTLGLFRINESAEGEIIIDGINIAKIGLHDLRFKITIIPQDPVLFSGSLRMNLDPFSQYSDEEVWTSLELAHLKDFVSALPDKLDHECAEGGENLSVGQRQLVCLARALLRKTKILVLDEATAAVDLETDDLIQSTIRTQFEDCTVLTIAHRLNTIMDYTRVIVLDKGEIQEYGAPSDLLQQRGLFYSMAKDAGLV

`CC(=O)[C@H]1CC[C@H]2[C@@H]3CCC4=CC(=O)CC[C@]4(C)[C@H]3CC[C@]12C` [PROGESTERONE]: in series [1], the Activity result is “inhibitor [+]”. Regarding `CCCN(CCC)S(=O)(=O)c1ccc(C(=O)O)cc1` [PROBENECID], the Activity entry in series [2] is “inhibitor [+]”. For the compound `CC#C[C@]1(O)CC[C@H]2[C@@H]3CCC4=CC(=O)CCC4=C3[C@@H](c3ccc(N(C)C)cc3)C[C@@]21C` [MIFEPRISTONE], the Activity entry in series [3] is “inhibitor [+]”.
